ChEMBL document CHEMBL5620357, “Synthesis and anti-inflammatory activity evaluation of NO-releasing furoxan/1,2,4-triazole hybrid derivatives” (Eur J Med Chem, 2023)
The source made the active and inactive calls. The calls are words filed in the database; no cut-off is given here.

Tests used:
[1] = Cytotoxicity against mouse RAW264.7 cells assessed as maximal safe dose measured after 24 hrs by MTT assay; assay type: toxicity, cell-based; conditions: read-out: MTD
[2] = Cytotoxicity against mouse RAW264.7 cells assessed as cell viability at 50 uM measured after 24 hrs by MTT assay; assay type: toxicity, cell-based; conditions: read-out: Activity
[3] = test system: RAW264.7; experiment: cells; conditions: Mus musculus, RAW264.7, 24 h
Description: Anti-inflammatory activity against mouse RAW264.7 cells assessed as inhibition of LPS-induced NO production measured after 24 hrs incubation by Griess analysis

[4] = Gastric ulcerogenic activity in mouse assessed as mucosal erosion and inflammatory cellular infiltration at 2.5 to 10 mg/kg, po by hematoxylin and eosin staining based assay; assay type: toxicity, organism-based; conditions: in vivo, dose 2.5-10 mg/kg
[5] = test system: Mus musculus; experiment: Anti-inflammatory activity against carrageenan-induced hind paw edema mouse model assessed as reduction in cellular infiltration in connective tissue at 10 mg/kg, po; assay type: functional, organism-based
[6] = test system: Mus musculus; experiment: Anti-inflammatory activity against carrageenan-induced paw edema in ICR mouse model assessed as reduction in IL-6 level in serum at 10 mg/kg, po measured after 5 hrs by ELISA relative to control; assay type: functional
[7] = test system: Mus musculus; experiment: Anti-inflammatory activity against carrageenan-induced paw edema in ICR mouse model assessed as reduction in TNF-alpha level in serum at 10 mg/kg, po measured after 5 hrs by ELISA relative to control; assay type: functional
[8] = test system: Mus musculus; experiment: Anti-inflammatory activity against carrageenan-induced hind paw edema mouse model assessed as decrease in COX-2 expression in connective tissue at 10 mg/kg, po; assay type: functional, organism-based

Structure (SMILES) | MNTC at 24 h [1] | viability at 24 h, 50 µM [2] | IC50 [3] | other results
COc1ccc(-n2nc(C(=O)OCc3c(-c4ccccc4)no[n+]3[O-])nc2CCl)cc1 | ~20 µg/mL | > 95% | – | –
O=C(OCc1c(-c2ccccc2)no[n+]1[O-])c1nc(CCl)n(-c2ccccc2)n1 | ~20 µg/mL | > 95% | – | –
O=C(OCc1c(-c2ccccc2)no[n+]1[O-])c1nc(CCl)n(-c2cccc(F)c2)n1 | ~20 µg/mL | > 95% | – | –
[O-][n+]1ccno1 | – | – | 50 µM | –
COc1ccc2c(c1)c(CC(=O)O)c(C)n2C(=O)c1ccc(Cl)cc1 [INDOMETHACIN] | – | – | 56.8 µM | Activity [4]: Toxic; Activity [5]: Active; inhibition in vivo at 10 mg/kg [6]: 44%; inhibition in vivo at 10 mg/kg [7]: 29.8%; Activity [8]: Active
N#Cc1ccc(-n2nc(C(=O)OCc3c(-c4ccccc4)no[n+]3[O-])nc2CCl)cc1 | ~20 µg/mL | > 95% | – | –
Cc1cccc(-n2nc(C(=O)OCc3c(-c4ccccc4)no[n+]3[O-])nc2CCl)c1 | ~20 µg/mL | > 95% | 6.1 µM | –
O=C(OCc1c(-c2ccccc2)no[n+]1[O-])c1nc(CCl)n(-c2ccc(C(F)(F)F)cc2)n1 | ~20 µg/mL | > 95% | – | –
O=C(OCc1c(-c2ccccc2)no[n+]1[O-])c1nc(CCl)n(-c2ccc(F)cc2)n1 | ~20 µg/mL | > 95% | – | –
O=C(OCc1c(-c2ccccc2)no[n+]1[O-])c1nc(CCl)n(-c2ccccc2C(F)(F)F)n1 | ~20 µg/mL | > 95% | 13.8 µM | –
Cc1ccc(-n2nc(C(=O)OCc3c(-c4ccccc4)no[n+]3[O-])nc2CCl)cc1 | ~20 µg/mL | > 95% | – | –
O=C(OCc1c(-c2ccccc2)no[n+]1[O-])c1nc(CCl)n(-c2cccc(C(F)(F)F)c2)n1 | ~20 µg/mL | > 95% | – | Activity [4]: Non-Toxic
O=C(OCc1c(-c2ccccc2)no[n+]1[O-])c1nc(CCl)n(-c2ccccc2F)n1 | ~20 µg/mL | > 95% | 14.6 µM | –
